Assay results published in patent publication US8389724B2, “Crystalline salt forms of a 5,6,7,8-tetrahydro-1,2,4-triazolo[4,3-a]pyrazine derivative” (Corporacion Medichem, S.L., priority 2008, dated 2013).
Where a name gives a salt, the structure may show the parent alone. Read-outs that look alike come from different tables or passages of the source.

Experiments:
[1] = Stability studies of sitagliptin salts (10 months storage; HPLC, XRD, visual inspection); assay type: physicochemical; conditions: for Purity (HPLC) 10 months later / Aspect/Colour 10 months later / XRD analysis 10 months later: stored 10 months at room temperature, normal pressure, ambient atmosphere; for Aspect/Colour 10 months later: visual inspection; for Stability in terms of polymorphic form: after ten months of storage; for XRD analysis 10 months later: initial XRD Form I
Procedure: The XRD diffractograms were obtained using a RX SIEMENS D5000 diffractometer with a vertical goniometer, a copper anodic tube, and radiation CuKα, λ=1.54056.
Mobile phase A was a mixture of methanol and 5 mM dibasic sodium phosphate buffer, pH=7.0 (70:30, v/v). The buffer was prepared by dissolving 0.217 g of dibasic sodium phosphate in 300 mL of water and adjusting the pH of the solution to 7.0±0.1 with phosphoric acid, and filtered through a 0.22 μm nylon membrane under vacuum. Mobile phase B was methanol.
The following gradient was used: […]
The samples were analyzed after 10 months by HPLC, XRD, and visual inspection.

[2] = room temperature
[3] = listed as sitagliptin ethanedisulfonate Form I
[4] = listed as sitagliptin galactarate Form I

Compound | Purity (HPLC) 10 months later [1] [%] | Aspect/Colour 10 months later [1] | XRD analysis 10 months later [1] | other results
N[C@@H](CC(=O)N1CCn2c(nnc2C(F)(F)F)C1)Cc1cc(F)c(F)cc1F.O=S(=O)(O)CCS(=O)(=O)O [Ethane-disulfonate, sitagliptin ethanedisulfonate] | 99.83 | off-white | Form I | Stability in terms of polymorphic form [1]: highly stable; Purity (HPLC) 10 months later [1, 3]: higher than 99.8%; Descriptive term (solubility in water) [2]: Freely soluble; Descriptive term (solubility in water) [2, 3]: freely soluble
N[C@@H](CC(=O)N1CCn2c(nnc2C(F)(F)F)C1)Cc1cc(F)c(F)cc1F.O=C(O)[C@@H](O)[C@H](O)[C@H](O)[C@@H](O)C(=O)O [Galactarate, sitagliptin galactarate] | 99.15 | off-white | Form I | Stability in terms of polymorphic form [1]: highly stable; Purity (HPLC) 10 months later [1, 4]: higher than 99.1%; Descriptive term (solubility in water) [2]: Sparingly soluble; Descriptive term (solubility in water) [2, 4]: sparingly soluble
N[C@@H](CC(=O)N1CCn2c(nnc2C(F)(F)F)C1)Cc1cc(F)c(F)cc1F [Hydrobromide, sitagliptin hydrobromide] | 98.92 | off-white | Form I | –
N[C@@H](CC(=O)N1CCn2c(nnc2C(F)(F)F)C1)Cc1cc(F)c(F)cc1F.N[C@@H](CC(=O)O)C(=O)O [L-aspartate, sitagliptin L-aspartate] | 97.14 | white | – | –
N#CS.N[C@@H](CC(=O)N1CCn2c(nnc2C(F)(F)F)C1)Cc1cc(F)c(F)cc1F [Thiocyanate, sitagliptin thiocyanate] | 99.22 | light pink | Form I | Stability in terms of polymorphic form [1]: highly stable; Purity (HPLC) 10 months later ([1]; listed as sitagliptin thiocyanate Form I): higher than 99.2%

Second part, led by results:

Purity (HPLC) 10 months later [1] [%] | Compound | Aspect/Colour 10 months later [1] | XRD analysis 10 months later [1] | other results
96.29 | NC(CC(=O)N1CCn2c(nnc2C(F)(F)F)C1)Cc1cc(F)c(F)cc1F.O=C(O)C(O)C(O)C(O)C(O)CO [D-Gluconate, sitagliptin D-gluconate] | beige | – | –
98.64 | sitagliptin (S)-pyroglutamate | off-white | – | –
98.90 | sitagliptin acetate | off-white | – | –
98.91 | sitagliptin hemi-L-malate | – | – | –
95.95 | sitagliptin oxalate | white | Form I | –
98.88 | sitagliptin succinate | off-white | – | –
